Experimental data published in patent US20240376098A1, “METHODS OF TREATMENT USING BCN057, BCN077 AND ANALOGS” (BCN Biosciences L.L.C., priority 2021, published 2024).

Experiments:
[1] = system: Lgr5+ ISCs; assay: Lgr5+ intestinal stem cells in 5FU treated Lgr5-Cre-ERT-GFP mice; assay type: in vivo; conditions: 5FU treated mice, confocal microscopic imaging
Experimental: 5FU is a component of FOLFIRINOX and the active agent metabolized from Capecitabine (Xeloda®). To, examine the effect of BCN057 against chemo induced toxicity in Lgr5+ ISCs, Lgr5-Cre-ERT-GFP mice were pre-treated with 5FU as reported and then subjected to BCN057 treatment.
Stains of GI crypts with green=LGR5+ stem cells. Mice were treated with 5FU and 5FU+BCN057 for 5 days. BCN057 was administered for two extra days after 5FU treatment. Small intestine samples were harvested and stained for LGR5 at 3 days after the last 5FU injection. FIG. 5D is a histogram of the quantitation by % of LGR5+ cells remaining in […] sections at the crypt base showing prevention of 5-FU induced apoptosis in LGR5+ stem cells in GI.

[2] = system: PD-1 expression on human T-lymphocytes; assay: Western blot of PD-1 on T-lymphocytes co-cultured with Panc-1 cells; assay type: cell-based; conditions: 15 minutes to 24 hours
Experimental: Cell lines and cell culture: Panc-1 cells were cultured in DMEM medium supplemented with 10% Fetal Bovine Serum and maintained at 37° C.5% CO2. Human Peripheral Blood Pan-T Cells were cultured in serum free T cells expansion media with 10 ng/ml of rhIL-2, T-cell activator and expanded as per the manufacturer instructions. Panc-1 cells and T-Cells were grown and expanded separately in T75 flasks. For co-culture experiments with Panc-1 cell, 2.5 million T-cells per well were plated in the well using a 6 well plate. 2.5 million Panc-1 Cells were plated in the thinsert which was placed into the well of the 6 well plate in order to have the cells physically separated but share media. The cells were incubated for 24 hours at 37° C., 5% CO2. At 24 hours the media was replaced with media containing vehicle, or 10 uM BCN057 and were incubated for the following timepoints: 1 hr, 6 hr, 12 hr, 24 hrs. The Panc-1 cells were removed by gently scraping the cells from the thinsert.
Western Blot: Cells were harvested and lysed in cell lysis buffer on ice for 15 minutes and the lysate was centrifuged at 13,000 rpm at 4° C. for 10 minutes. The supernatant was transferred into a new tube for BCA protein quantification assay (Thermo Fisher Scientific) and the samples were normalized. 3× loading buffer (Cell Signaling) was added the protein sample and boiled for 5 minutes. The samples were used for SDS-PAGE analysis and transferred to nitrocellulose membrane. The membrane was blocked with 5% BSA at room temperature for 1 hour and incubated with primary antibody at 4° C. overnight. The membrane was washed with 1×TBST 5 minutes for 3 times and incubated with horseradish peroxidase-conjugated secondary antibody for 1 hour at room temperature. The protein was visualized by SuperSignal West Pico Stable Peroxide Solution (Thermo Fisher Scientific). The blot was visualized by chemiluminescence using a BioRad Versadoc Imaging System.
BCN057 and Immune Checkpoint blockade: An emerging method of treatment for many forms of cancer, including PDAC, is immune checkpoint inhibitors. […]

[3] = system: KRAS mutant G12D invasive pancreatic cancer cell lines; assay: Proliferation of pancreatic cancer cell lines with analogues of BCN057; assay type: cell-based
[4] = system: human KRAS G12D mutant colorectal cancer cell line LS174T; assay: Viability of LS174T colorectal cancer cells; assay type: cell-based; conditions: viability versus concentration
Description: FIG. 9 is a graph of viability versus concentration of BCN077.

[5] = system: pancreatic ductal adenocarcinoma cells (AsPC-1, BxPC-3, MIA PaCa-2 and Panc-1); conditions: range over AsPC-1, BxPC-3, MIA PaCa-2 and Panc-1; limits printed in nM and μM; cited from earlier work

Compound	PD1 expression in co-culture of T-cells and Panc1 cells [2]	Proliferation of KRAS mutant G12D invasive pancreatic cancer cell lines [3]	further results
O=c1[nH]cc(F)c(=O)[nH]1 [5FU, 5-Fluorouracil, reference compound]	–	–	Lgr5+ ISCs in jejunal section [1]: significant loss of Lgr5+ ISCs
CONCCC(=O)Nc1c(-c2cc3ccc(OC)cc3[nH]c2=O)nc2c(C)cccn12 [BCN036]	inhibit PD1 expression over time	inhibition of proliferation	–
CNCCC(=O)Nc1c(-c2cc3ccc(OC)cc3[nH]c2=O)nc2c(C)cccn12.Cl [BCN076]	inhibit PD1 expression over time	inhibition of proliferation	–
COc1ccc2cc(-c3nc4c(C)cccn4c3NC(=O)c3cccc(F)c3)c(=O)[nH]c2c1 [BCN077]	–	inhibition of proliferation	Activity on viability of LS174T [4]: potent activity
Nc1ccn([C@@H]2O[C@H](CO)[C@@H](O)C2(F)F)c(=O)n1 [gemcitabine]	–	–	IC50 [5]: 494 to 23900 nM
